Data from PubChem BioAssay (NCI).
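Test compounds were applied to cells in 96-well plates for 48 hours at 5 doses. Abbreviation: GI50, concentration required for 50% inhibition of growth. The concentration for full growth arrest is given as TGI.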

Columns and labels:
Test in all cases: NCI tumour cell line growth inhibition, 48 h
OVCAR-8 ovarian = tested on: OVCAR-8 ovarian
SK-MEL-2 melanoma = tested on: SK-MEL-2 melanoma
M14 melanoma = tested on: M14 melanoma
NCI-H460 lung = tested on: NCI-H460 lung
OVCAR-4 ovarian = tested on: OVCAR-4 ovarian
ACHN renal = tested on: ACHN renal
PC-3 prostate = tested on: PC-3 prostate
HS 578T breast = tested on: HS 578T breast
SF-268 CNS = tested on: SF-268 CNS
NCI-H522 lung = tested on: NCI-H522 lung

COC(=O)C1=C(C(=O)OC)N(c2ccc(OC)cc2[N+](=O)[O-])C(c2ccc(C)cc2)=CC1c1ccc(OC)cc1OC (stereo unspecified)
TGI (OVCAR-8 ovarian): 47.9 µM | TGI (SK-MEL-2 melanoma): > 80.4 µM | TGI (M14 melanoma): > 100 µM | TGI (NCI-H460 lung): 98.7 µM | TGI (OVCAR-4 ovarian): > 100 µM | TGI (ACHN renal): > 100 µM | TGI (PC-3 prostate): > 100 µM | TGI (HS 578T breast): 79.5 µM | TGI (SF-268 CNS): > 100 µM | TGI (NCI-H522 lung): 57.5 µM

O=c1oc2ccccc2cc1-c1cc2ccccn2c1
TGI (OVCAR-8 ovarian): > 100 µM | TGI (SK-MEL-2 melanoma): > 100 µM | TGI (M14 melanoma): > 100 µM | TGI (NCI-H460 lung): > 100 µM | TGI (OVCAR-4 ovarian): > 100 µM | TGI (ACHN renal): > 100 µM | TGI (PC-3 prostate): > 100 µM | TGI (HS 578T breast): > 100 µM | TGI (SF-268 CNS): > 100 µM | TGI (NCI-H522 lung): > 100 µM

O=S(=O)(O)CCCc1cccc2ccccc12
TGI (OVCAR-8 ovarian): > 100 µM | TGI (SK-MEL-2 melanoma): > 100 µM | TGI (M14 melanoma): > 100 µM | TGI (NCI-H460 lung): > 100 µM | TGI (OVCAR-4 ovarian): > 100 µM | TGI (ACHN renal): > 100 µM | TGI (PC-3 prostate): > 100 µM | TGI (HS 578T breast): > 100 µM | TGI (SF-268 CNS): > 100 µM | TGI (NCI-H522 lung): > 100 µM

CCCC(=O)NC(NC1CCCCC1)(C(=O)OCC)C(F)(F)F (stereo unspecified)
TGI (OVCAR-8 ovarian): > 100 µM | TGI (SK-MEL-2 melanoma): > 100 µM | TGI (M14 melanoma): > 100 µM | TGI (NCI-H460 lung): > 100 µM | TGI (OVCAR-4 ovarian): > 100 µM | TGI (ACHN renal): > 100 µM | TGI (PC-3 prostate): > 100 µM | TGI (HS 578T breast): > 100 µM | TGI (SF-268 CNS): > 100 µM | TGI (NCI-H522 lung): > 100 µM

CC(C)(C)OC(=O)N(CCCCN(CCCNC(=O)C(F)(F)F)C(=O)OC(C)(C)C)CCCNC(=O)C(F)(F)F
TGI (OVCAR-8 ovarian): > 100 µM | TGI (SK-MEL-2 melanoma): > 100 µM | TGI (M14 melanoma): > 100 µM | TGI (NCI-H460 lung): > 100 µM | TGI (OVCAR-4 ovarian): > 100 µM | TGI (ACHN renal): > 100 µM | TGI (PC-3 prostate): > 100 µM | TGI (HS 578T breast): > 100 µM | TGI (SF-268 CNS): > 100 µM | TGI (NCI-H522 lung): > 100 µM

CCN(CC)Cc1ccc(C(=S)Nc2ccc(Cl)cc2)s1
TGI (OVCAR-8 ovarian): 18.2 µM | TGI (SK-MEL-2 melanoma): 32.1 µM | TGI (M14 melanoma): 14.2 µM | TGI (NCI-H460 lung): 27.9 µM | TGI (OVCAR-4 ovarian): 34.6 µM | TGI (ACHN renal): 28.3 µM | TGI (PC-3 prostate): 28.6 µM | TGI (HS 578T breast): 32.5 µM | TGI (SF-268 CNS): 30 µM | TGI (NCI-H522 lung): 25 µM

O=[N+]([O-])C[C@@]12O[C@]3(O)C4C5CC(C6C5C3C61)C42 (stereo partly specified)
TGI (OVCAR-8 ovarian): > 100 µM | TGI (SK-MEL-2 melanoma): > 100 µM | TGI (M14 melanoma): > 100 µM | TGI (NCI-H460 lung): > 100 µM | TGI (OVCAR-4 ovarian): > 100 µM | TGI (ACHN renal): > 100 µM | TGI (PC-3 prostate): > 100 µM | TGI (HS 578T breast): > 100 µM | TGI (SF-268 CNS): > 100 µM | TGI (NCI-H522 lung): > 100 µM

C/C=C/C(CC(O)(C(F)(F)F)C(F)(F)F)=N/NC(N)=S
TGI (OVCAR-8 ovarian): > 10 µM | TGI (SK-MEL-2 melanoma): > 10 µM | TGI (M14 melanoma): > 10 µM | TGI (NCI-H460 lung): > 10 µM | TGI (OVCAR-4 ovarian): > 10 µM | TGI (ACHN renal): > 10 µM | TGI (PC-3 prostate): > 10 µM | TGI (HS 578T breast): > 10 µM | TGI (SF-268 CNS): > 10 µM | TGI (NCI-H522 lung): > 10 µM

COC[C@@H](N=CC(C)(C)C)C(C)C
TGI (OVCAR-8 ovarian): > 100 µM | TGI (SK-MEL-2 melanoma): > 100 µM | TGI (M14 melanoma): > 100 µM | TGI (NCI-H460 lung): > 100 µM | TGI (OVCAR-4 ovarian): > 100 µM | TGI (ACHN renal): > 100 µM | TGI (PC-3 prostate): > 100 µM | TGI (HS 578T breast): > 100 µM | TGI (SF-268 CNS): > 100 µM | TGI (NCI-H522 lung): > 100 µM

NS(=O)(=O)c1ccc(/C=C/c2ccc(O)c(O)c2)cc1
GI50 (OVCAR-8 ovarian): 16.7 µM | TGI (OVCAR-8 ovarian): 56.5 µM | TGI (SK-MEL-2 melanoma): 62.8 µM | TGI (M14 melanoma): > 100 µM | TGI (NCI-H460 lung): > 100 µM | GI50 (OVCAR-4 ovarian): 11.6 µM | TGI (OVCAR-4 ovarian): 27.2 µM | GI50 (ACHN renal): 20.4 µM | TGI (ACHN renal): > 100 µM | TGI (PC-3 prostate): 83.5 µM | GI50 (HS 578T breast): 25.6 µM | TGI (HS 578T breast): 92.8 µM | GI50 (SF-268 CNS): 18.2 µM | TGI (SF-268 CNS): 47.3 µM | GI50 (NCI-H522 lung): 2.25 µM | TGI (NCI-H522 lung): 4.79 µM

Brc1ccc2[nH]cc(-c3csc(-c4c[nH]c5ccccc45)n3)c2c1
TGI (OVCAR-8 ovarian): 21.2 µM | TGI (SK-MEL-2 melanoma): 9.36 µM | TGI (M14 melanoma): 5.14 µM | TGI (NCI-H460 lung): 12.6 µM | TGI (OVCAR-4 ovarian): 28.1 µM | TGI (ACHN renal): 13.2 µM | TGI (PC-3 prostate): 10.2 µM | TGI (HS 578T breast): > 47.9 µM | TGI (SF-268 CNS): 8.91 µM | TGI (NCI-H522 lung): 3.53 µM

COc1cc(OC)cc(Oc2nc3ccccc3nc2C(F)(F)F)c1
TGI (OVCAR-8 ovarian): > 100 µM | TGI (SK-MEL-2 melanoma): > 100 µM | TGI (M14 melanoma): > 100 µM | TGI (NCI-H460 lung): > 100 µM | TGI (OVCAR-4 ovarian): > 100 µM | TGI (ACHN renal): > 100 µM | TGI (PC-3 prostate): > 100 µM | TGI (HS 578T breast): > 100 µM | TGI (SF-268 CNS): > 100 µM | TGI (NCI-H522 lung): > 100 µM

CN1CCc2c([nH]c3ccccc23)C1
TGI (OVCAR-8 ovarian): > 100 µM | TGI (SK-MEL-2 melanoma): > 100 µM | TGI (M14 melanoma): > 100 µM | TGI (NCI-H460 lung): > 100 µM | TGI (OVCAR-4 ovarian): > 100 µM | TGI (ACHN renal): > 100 µM | TGI (PC-3 prostate): > 100 µM | TGI (HS 578T breast): > 100 µM | TGI (SF-268 CNS): > 100 µM | TGI (NCI-H522 lung): > 100 µM

CC(=O)N(C(C)=O)c1ncc(-n2nc(-c3ccccc3)cc2-c2ccccc2)c(-c2ccccc2)n1
TGI (OVCAR-8 ovarian): > 10 µM | TGI (SK-MEL-2 melanoma): > 10 µM | TGI (M14 melanoma): > 10 µM | TGI (NCI-H460 lung): > 10 µM | TGI (OVCAR-4 ovarian): > 10 µM | TGI (ACHN renal): > 10 µM | TGI (PC-3 prostate): > 10 µM | TGI (HS 578T breast): > 10 µM | TGI (SF-268 CNS): > 10 µM | TGI (NCI-H522 lung): > 10 µM

Cc1ccc(-c2c(C#N)c(-c3ccc(C)cc3)n(NS(=O)(=O)c3ccccc3)c(=O)c2C#N)cc1
TGI (OVCAR-8 ovarian): > 100 µM | TGI (SK-MEL-2 melanoma): > 100 µM | TGI (M14 melanoma): > 100 µM | TGI (NCI-H460 lung): > 100 µM | TGI (OVCAR-4 ovarian): > 100 µM | TGI (ACHN renal): > 100 µM | TGI (PC-3 prostate): > 100 µM | TGI (HS 578T breast): > 100 µM | TGI (SF-268 CNS): > 100 µM | TGI (NCI-H522 lung): > 100 µM

CC1(C)/C(=N\NC(N)=O)C2CCC1C2 (stereo unspecified)
TGI (OVCAR-8 ovarian): > 100 µM | TGI (SK-MEL-2 melanoma): > 100 µM | TGI (M14 melanoma): > 100 µM | TGI (NCI-H460 lung): > 100 µM | TGI (OVCAR-4 ovarian): > 100 µM | TGI (ACHN renal): > 100 µM | TGI (PC-3 prostate): > 100 µM | TGI (HS 578T breast): > 100 µM | TGI (SF-268 CNS): > 100 µM | TGI (NCI-H522 lung): > 100 µM

O=[N+]([O-])c1ccc(CN(CCCl)OCCCl)cc1
TGI (OVCAR-8 ovarian): > 100 µM | TGI (SK-MEL-2 melanoma): > 100 µM | TGI (M14 melanoma): > 100 µM | TGI (NCI-H460 lung): > 100 µM | TGI (OVCAR-4 ovarian): > 100 µM | TGI (ACHN renal): > 100 µM | TGI (PC-3 prostate): > 100 µM | TGI (HS 578T breast): > 100 µM | TGI (SF-268 CNS): > 100 µM | TGI (NCI-H522 lung): > 100 µM

O=c1oc2ccc3ccccc3c2cc1-c1nc2ccccc2s1
TGI (OVCAR-8 ovarian): > 100 µM | TGI (SK-MEL-2 melanoma): > 100 µM | TGI (M14 melanoma): > 100 µM | TGI (NCI-H460 lung): > 100 µM | TGI (OVCAR-4 ovarian): > 100 µM | TGI (ACHN renal): > 100 µM | TGI (PC-3 prostate): > 100 µM | TGI (HS 578T breast): > 100 µM | TGI (SF-268 CNS): > 100 µM | TGI (NCI-H522 lung): > 100 µM

COC(=O)C1=C(OC(=O)/C(=C/c2ccc(Cl)cc2)c2ccc(Cl)cc2)C(C(=O)OC)[C@@]2(O)[C@@H](C(=O)OC)[C@H](C)C[C@@H]1[C@@H]2C(=O)OC (stereo partly specified)
TGI (OVCAR-8 ovarian): > 100 µM | TGI (SK-MEL-2 melanoma): > 100 µM | TGI (M14 melanoma): > 100 µM | TGI (NCI-H460 lung): > 100 µM | TGI (OVCAR-4 ovarian): > 100 µM | TGI (ACHN renal): > 100 µM | TGI (PC-3 prostate): > 100 µM | TGI (HS 578T breast): > 100 µM | TGI (SF-268 CNS): > 100 µM | TGI (NCI-H522 lung): > 67.3 µM
